The text below walks through data of patent US20110201569A1, “Methods For Treating Myocardial Disorders” (priority 2009, published 2011).

Type in all cases: in vivo, mouse
One assay relates to TNF-α. In words: qRT-PCR of TNF-α mRNA in left ventricle after TAC/sham. The settings on record: Example 1, TAC, three days after surgery, M ± SEM. On the procedure: (§1) 11 to 13 week old male C57BL/6 mice were purchased from Charles River (Germany). Mice were housed in individually ventilated pathogen-free cages with free access to water and standard rodent chow. The animals were handled according to the principles of laboratory animal care (NIH publication No. 85-23, revised 1996), and animal procedures were approved by the local committee for animal care.
(§2) The first injection was performed 5 min prior to TAC or sham-operation procedure (described below) and repeated 4, 8, 12, 24, 36, 48 and 60 hrs after surgery. […]
(§3) Quantitative real-time PCR analysis was completed. […] RNA was dissolved in 100 μl of RNase-free water, and concentration was determined photometrically (absorbance at 260 nm) before storage at −80° C. […]
(§4) Real-time PCR was performed according to the manufacturer's protocol. […] Each sample was measured in triplicate wells and underwent 40 cycles of amplification on an ABI PRISM® Sequence Detection System (Applied Biosystems). CT values were determined with SDS Software 2.2 (Applied Biosystems) and relative quotients (RQ) were calculated following the ΔΔCT method (RQ target gene/GAPDH).
(§5) Statistics were calculated using Prism 4.05 (GraphPad Software Inc., CA, USA). All values are expressed as mean (M)±SEM. […]
On the technique in general: Real-time PCR tracks product formation cycle by cycle.

In assay [1] the test system is total matrix metalloproteinase (MMP-2+MMP-9). In words: Total MMP mRNA (MMP-2+MMP-9) calculated from qRT-PCR. Particulars: Example 1; TAC vs sham within treated groups; three days after surgery. The method, then:
as §1, §2, §3, §4, §5

Assay [2] concerns matrix metalloproteinase-2 (MMP-2). Description: qRT-PCR of MMP-2 mRNA in left ventricle after TAC/sham. The method, then: as §1, §2, §3, §4, §5
The next assay deals with Tristetraprolin (TTP). In words: qRT-PCR of TTP mRNA in left ventricle after TAC/sham. Particulars: Example 1, three days after surgery. On the procedure:
as §1, §2, §3, §4, §5

For assay [3], the system named is brain natriuretic peptide (BNP). In words: qRT-PCR of BNP mRNA in left ventricle after TAC/sham. The settings on record: Example 2; TAC treated vs TAC-placebo. The method, then:
as §1, §2, §3, §4, §5

Another assay has as its system IL-1β. Description: qRT-PCR of IL-1β mRNA in left ventricle after TAC/sham. The settings on record: Example 2; TAC treated vs TAC-placebo. The method, then: as §1, §2, §3, §4, §5

Turning to `CCCCCC/C=C\CCCCCCCCCC(=O)N[C@H]1[C@H](OC[C@H]2O[C@H](OP(=O)([O-])[O-])[C@H](NC(=O)CC(=O)CCCCCCCCCCC)[C@@H](OCCCCCCCCCC)[C@@H]2O)O[C@H](COC)[C@@H](OP(=O)([O-])[O-])[C@@H]1OCC[C@@H](CCCCCCC)OC.[Na+].[Na+].[Na+].[Na+]` [Eritoran tetrasodium], in the assay on TNF-α, the “TNF mRNA level” value turned out to be 1.32±0.19. Also, the “total MMP mRNA level (MMP-2+MMP-9)” value in assay [1] is “remained unchanged by aortic banding”. Moreover, the “MMP-2 mRNA level” value in assay [2] (Example 1, TAC vs sham within treated groups, three days after surgery) is given as “remained unchanged by aortic banding”. Also, the TTP/TNFα ratio in the assay on Tristetraprolin (TTP) (TAC) was 0.61±0.33; in the assay with Tristetraprolin (TTP) (sham operation), 1.40±0.33.
As to `CCCCCC/C=C\CCCCCCCCCC(=O)N[C@H]1[C@H](OC[C@H]2O[C@H](OP(=O)(O)O)[C@H](NC(=O)CC(=O)CCCCCCCCCCC)[C@@H](OCCCCCCCCCC)[C@@H]2O)O[C@H](COC)[C@@H](OP(=O)(O)O)[C@@H]1OCC[C@@H](CCCCCCC)OC` [compound of formula (I), α-D-Glucopyranose, 3-O-decyl-2-deoxy-6-O-[2-deoxy-3-O-[(3R)-3-methoxydecyl)-6-O-methyl-2-[[(−11Z)-1-oxo-11-octadecenyl)amino]-4-O-phosphono-β-D-glucopyranosyl]-2-[(1,3-dioxotetradecyl)amino]-1-(dihydrogen phosphate)], the “BNP mRNA expression” value in assay [3] was “elevated in TAC-placebo mice compared to sham and the TAC groups treated”. For the same molecule, the “IL-1β mRNA expression” value in the assay on IL-1β is given as “lower”. In addition, the “MMP-2 mRNA expression” value in assay [2] (Example 2, TAC treated vs TAC-placebo) is reported as “higher in the TAC-placebo animals compared to the TAC groups treated”.
